From ChEMBL document CHEMBL1143474, “Synthesis and pharmacological evaluation of Tic-hydantoin derivatives as selective sigma1 ligands. Part 1” (Bioorg Med Chem Lett, 2005)

Key:
Sigma 2 receptor = assay: Inhibitory concentration against opioid receptor sigma 2 of rat cerebral cortex using [3H]DTG upon incubation for 120 minutes at 22 degree C; type: tissue-based
[1] = molecular target: Sigma non-opioid intracellular receptor 1 (Cavia porcellus) (UniProt Q60492); assay: Inhibitory concentration against opioid receptor sigma 1 of guinea pig cerebral cortex using [3H](+)-pentazocine upon incubation for 150 minutes at 22 degree C
Sequence of Sigma non-opioid intracellular receptor 1 (Cavia porcellus) (Q60492 whole entry, looked up): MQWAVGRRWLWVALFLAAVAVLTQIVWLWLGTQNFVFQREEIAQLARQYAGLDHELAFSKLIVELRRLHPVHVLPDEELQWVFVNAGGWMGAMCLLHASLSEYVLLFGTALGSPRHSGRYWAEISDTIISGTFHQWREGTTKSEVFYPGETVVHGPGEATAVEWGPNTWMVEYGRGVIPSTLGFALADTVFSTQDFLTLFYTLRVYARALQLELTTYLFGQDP

An IC50 (Sigma 2 receptor) of 507 nM was found for `O=C1[C@@H]2Cc3ccccc3CN2C(=S)N1CCN1CCCCC1` in this work.

An IC50 (Sigma 2 receptor) of over 1000 nM was found for `O=C1[C@@H]2Cc3ccccc3N2C(=O)N1CCCN1CCCCC1` in this work.

An IC50 (Sigma 2 receptor) of over 1000 nM was found for `O=C1[C@H]2Cc3ccccc3CN2C(=O)N1CCN1CCCCC1` in this work.

An IC50 [1] of 16 nM and an IC50 (Sigma 2 receptor) of over 1000 nM were found for `O=C1[C@@H]2Cc3ccccc3CN2C(=O)N1CCN1CCCCC1` in this work.

An IC50 [1] of 21.5 nM and an IC50 (Sigma 2 receptor) of over 1000 nM were found for `O=C1[C@@H]2Cc3ccccc3CN2C(=O)N1CCCN1CCCCC1` in this work.

An IC50 (Sigma 2 receptor) of over 1000 nM was found for `c1ccc2c(c1)C[C@H]1CN(CCN3CCCCC3)CN1C2` in this work.

An IC50 (Sigma 2 receptor) of over 1000 nM was found for `O=C1N(CCN2CCCCC2)C[C@@H]2Cc3ccccc3CN12` in this work.
